Experimental data as given in patent publication US8389503B2, “Steroidal antitubercular compounds” (priority 2011, dated 2013).
In brackets after ≈: the same amount, converted by molar mass.

What was measured:
[1] = tested on: Mycobacterium tuberculosis H37Rv (ATCC 27294); assay: Primary screen (dose response), Microplate Alamar Blue Assay (MABA), Level-I antituberculosis assay; format: cell-based; details: M. tuberculosis H37Rv, BACTEC 12B medium, concentration reducing fluorescence 90% relative to controls
Experimental: Primary Screen (Dose Response): Determination of a 90% Inhibitory Concentration (IC90). The initial screen is conducted against Mycobacterium tuberculosis H37Rv (ATCC 27294) in BACTEC 12B medium using the Microplate Alamar Blue Assay (MABA). Compounds are tested in ten 2-fold dilutions, typically from 100 μg/mL to 0.19 μg/mL. The IC90 is defined as the concentration effecting a reduction in fluorescence of 90% relative to controls. This value is determined from the dose-response curve using a curve-fitting program. Any IC90 value of ≦10 μg/mL is considered “Active” for antitubercular activity.

## CCCCCCOC(=O)c1ccc(OC2CC[C@@]3(C)C(=CC[C@H]4[C@@H]5CC[C@H]([C@H](C)C=C[C@@H](CC)C(C)C)[C@@]5(C)CC[C@@H]43)C2)cc1 (some centres unmarked) [Compound I, n-hexyl-p-stigmasteryloxy-benzoate]
[1]
  IC90 (90% inhibitory concentration): 6.25 µg/mL (≈ 10.1 µM)
VERO cells
  CC50 (mammalian cell cytotoxicity): 79.59 µg/mL (≈ 129 µM)
